# Target: T1, KRAS G12C 1-169, his-tagged protein, GDP-loaded (Homo sapiens, UniProt P01116, G12C)
# T1 construct: KRAS G12C 1-169, his-tagged protein, GDP-loaded
# Assay: Biochemical assay: covalent modification of KRAS G12C measured by mass spectrometry (RapidFire/TOF or Q-Exactive)
# Format: binding
# Details: covalent binding to (modification of) KRAS G12C after a ten minute incubation period
# Procedure, shortened: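 GDP-loaded KRAS G12C 1-169 (his-tagged) at 2 μM or 0.5 μM in 20 mM Hepes, 150 mM NaCl, 1 mM MgCl2, incubated with compound at 100, 30 or 10 μM at room temperature for 10 min, 30 min, 2 h or 24 h, then quenched with formic acid. Intact-protein LC-MS, deconvolved; percent modification from modified versus unmodified protein.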
row,SMILES,Binding %
1,"C=CC(=O)N1C[C@H](C)N(c2nc(OC3CCN(C(C)C)CC3)nc3c(F)c(-c4c(C)ccc5cnn(C)c45)c(Cl)cc23)C[C@H]1C (atropisomer, axis not shown) [Compound 166, 1-((2R,5S)-4-((S)-6-chloro-7-(1,6-dimethyl-1H-indazol-7-yl)-8-fluoro-2-(1-isopropylpiperidin-4-yloxy)quinazolin-4-yl)-2,5-dimethylpiperazin-1-yl)prop-2-en-1-one]",+ (+ indicates binding activity greater than 0% and up to 50%)
2,"C=CC(=O)N1C[C@H](C)N(c2nc(OC3CCN(C(C)C)CC3)nc3c(F)c(-c4c(C)ccc5cnn(C)c45)c(Cl)cc23)C[C@H]1C (atropisomer, axis not shown) [Compound 167, 1-((2R,5S)-4-((R)-6-chloro-7-(1,6-dimethyl-1H-indazol-7-yl)-8-fluoro-2-(1-isopropylpiperidin-4-yloxy)quinazolin-4-yl)-2,5-dimethylpiperazin-1-yl)prop-2-en-1-one]",+++ (+++ indicates binding activity greater than 80%)
3,"C=CC(=O)N1C[C@H](C)N(c2nc(OCCN3CCN(C)CC3)nc3c(F)c(-c4c(C)ccc5cnn(C)c45)c(Cl)cc23)C[C@H]1C (atropisomer, axis not shown) [Compound 168, 1-((2R,5S)-4-((S)-6-chloro-7-(1,6-dimethyl-1H-indazol-7-yl)-8-fluoro-2-(2-(4-methylpiperazin-1-yl)ethoxy)quinazolin-4-yl)-2,5-dimethylpiperazin-1-yl)prop-2-en-1-one]",+ (+ indicates binding activity greater than 0% and up to 50%)
4,"C=CC(=O)N1C[C@H](C)N(c2nc(OCCN3CCN(C)CC3)nc3c(F)c(-c4c(C)ccc5cnn(C)c45)c(Cl)cc23)C[C@H]1C (atropisomer, axis not shown) [Compound 169, 1-((2R,5S)-4-((R)-6-chloro-7-(1,6-dimethyl-1H-indazol-7-yl)-8-fluoro-2-(2-(4-methylpiperazin-1-yl)ethoxy)quinazolin-4-yl)-2,5-dimethylpiperazin-1-yl)prop-2-en-1-one]",+++ (+++ indicates binding activity greater than 80%)
5,"C=CC(=O)N1C[C@H](C)N(c2nc(N3CC(NC)C3)nc3c(F)c(-c4c(C)ccc5cnn(C)c45)c(Cl)cc23)C[C@H]1C (atropisomer, axis not shown) [Compound 170, 1-((2R,5S)-4-((R)-6-chloro-7-(1,6-dimethyl-1H-indazol-7-yl)-8-fluoro-2-(3-(methylamino)azetidin-1-yl)quinazolin-4-yl)-2,5-dimethylpiperazin-1-yl)prop-2-en-1-one]",+++ (+++ indicates binding activity greater than 80%)
6,"C=CC(=O)N1C[C@H](C)N(c2nc(N3CC(N(C)C)C3)nc3c(F)c(-c4c(F)ccc5cnn(C6CC6)c45)c(Cl)cc23)C[C@H]1C (atropisomer, axis not shown) [Compound 201, 1-((2R,5S)-4-((S)-6-chloro-7-(1-cyclopropyl-6-fluoro-1H-indazol-7-yl)-2-(3-(dimethylamino)azetidin-1-yl)-8-fluoroquinazolin-4-yl)-2,5-dimethylpiperazin-1-yl)prop-2-en-1-one]",+++ (+++ indicates binding activity greater than 80%)
7,"C=CC(=O)N1C[C@H](C)N(c2nc(N3CC(NC)C3)nc3c(F)c(-c4c(C)ccc5cnn(C)c45)c(Cl)cc23)C[C@H]1C (atropisomer, axis not shown) [Compound 206, 1-((2R,5S)-4-((R)-6-chloro-7-(1,6-dimethyl-1H-indazol-7-yl)-8-fluoro-2-(3-(methylamino)azetidin-1-yl)quinazolin-4-yl)-2,5-dimethylpiperazin-1-yl)prop-2-en-1-one]",+++ (+++ indicates binding activity greater than 80%)
8,"C=CC(=O)N1C[C@H](C)N(c2nc(N3CC(NC)C3)nc3c(F)c(-c4c(C)ccc5cnn(C6CC6)c45)c(Cl)cc23)C[C@H]1C (atropisomer, axis not shown) [Compound 207, 1-((2R,5S)-4-((S)-6-chloro-7-(1-cyclopropyl-6-methyl-1H-indazol-7-yl)-8-fluoro-2-(3-(methylamino)azetidin-1-yl)quinazolin-4-yl)-2,5-dimethylpiperazin-1-yl)prop-2-en-1-one]",+ (+ indicates binding activity greater than 0% and up to 50%)
9,"C=CC(=O)N1C[C@H](C)N(c2nc(N3CC(NC)C3)nc3c(F)c(-c4c(C)ccc5cnn(C6CC6)c45)c(Cl)cc23)C[C@H]1C (atropisomer, axis not shown) [Compound 208, 1-((2R,5S)-4-((R)-6-chloro-7-(1-cyclopropyl-6-methyl-1H-indazol-7-yl)-8-fluoro-2-(3-(methylamino)azetidin-1-yl)quinazolin-4-yl)-2,5-dimethylpiperazin-1-yl)prop-2-en-1-one]",+++ (+++ indicates binding activity greater than 80%)
10,"C=CC(=O)N1C[C@H](C)N(c2nc(N3CC(NC)C3)nc3c(F)c(-c4c(C)ccc5[nH]nc(C6CC6)c45)c(Cl)cc23)C[C@H]1C (atropisomer, axis not shown) [Compound 210, 1-((2R,5S)-4-((S)-6-chloro-7-(3-cyclopropyl-5-methyl-1H-indazol-4-yl)-8-fluoro-2-(3-(methylamino)azetidin-1-yl)quinazolin-4-yl)-2,5-dimethylpiperazin-1-yl)prop-2-en-1-one]",+ (+ indicates binding activity greater than 0% and up to 50%)
11,"[2H]C([2H])([2H])N(C1CN(c2nc(N3C[C@@H](C)N(C(=O)C=C)C[C@@H]3C)c3cc(Cl)c(-c4c(C)ccc5cnn(C)c45)c(F)c3n2)C1)C([2H])([2H])[2H] (atropisomer, axis not shown) [Compound 211, 1-((2R,5S)-4-((S)-6-chloro-7-(1,6-dimethyl-1H-indazol-7-yl)-2-(3-(di-perdeuteromethylamino)azetidin-1-yl)-8-fluoroquinazolin-4-yl)-2,5-dimethylpiperazin-1-yl)prop-2-en-1-one]",+ (+ indicates binding activity greater than 0% and up to 50%)
12,"[2H]C([2H])([2H])N(C1CN(c2nc(N3C[C@@H](C)N(C(=O)C=C)C[C@@H]3C)c3cc(Cl)c(-c4c(C)ccc5cnn(C)c45)c(F)c3n2)C1)C([2H])([2H])[2H] (atropisomer, axis not shown) [Compound 212, 1-((2R,5S)-4-((R)-6-chloro-7-(1,6-dimethyl-1H-indazol-7-yl)-2-(3-(di-perdeuteromethylamino)azetidin-1-yl)-8-fluoroquinazolin-4-yl)-2,5-dimethylpiperazin-1-yl)prop-2-en-1-one]",+++ (+++ indicates binding activity greater than 80%)
13,"C=CC(=O)N1C[C@H](C)N(c2nc(N3CC(N(C)C)C3)nc3c(F)c(-c4ccc(F)c5cnn(C6CC6)c45)c(Cl)cc23)C[C@H]1C (atropisomer, axis not shown) [Compound 217, 1-((2R,5S)-4-((S)-6-chloro-7-(1-cyclopropyl-4-fluoro-1H-indazol-7-yl)-2-(3-(dimethylamino)azetidin-1-yl)-8-fluoroquinazolin-4-yl)-2,5-dimethylpiperazin-1-yl)prop-2-en-1-one]",+ (+ indicates binding activity greater than 0% and up to 50%)
14,"C=CC(=O)N1C[C@H](C)N(c2nc(N3CC(N(C)C)C3)nc3c(F)c(-c4ccc(F)c5cnn(C6CC6)c45)c(Cl)cc23)C[C@H]1C (atropisomer, axis not shown) [Compound 218, 1-((2R,5S)-4-((R)-6-chloro-7-(1-cyclopropyl-4-fluoro-1H-indazol-7-yl)-2-(3-(dimethylamino)azetidin-1-yl)-8-fluoroquinazolin-4-yl)-2,5-dimethylpiperazin-1-yl)prop-2-en-1-one]",+++ (+++ indicates binding activity greater than 80%)
15,"C=CC(=O)N1C[C@H](C)N(c2nc(N3CC(NC)C3)nc3c(F)c(-c4c(C)ccc5[nH]nc(C)c45)c(Cl)cc23)C[C@H]1C (atropisomer, axis not shown) [Compound 219, 1-((2R,5S)-4-((S)-6-chloro-7-(3,5-dimethyl-1H-indazol-4-yl)-8-fluoro-2-(3-(methylamino)azetidin-1-yl)quinazolin-4-yl)-2,5-dimethylpiperazin-1-yl)prop-2-en-1-one]",+ (+ indicates binding activity greater than 0% and up to 50%)
16,"C=CC(=O)N1C[C@H](C)N(c2nc(N3CC(NC)C3)nc3c(F)c(-c4c(C)ccc5[nH]nc(C)c45)c(Cl)cc23)C[C@H]1C (atropisomer, axis not shown) [Compound 220, 1-((2R,5S)-4-((R)-6-chloro-7-(3,5-dimethyl-1H-indazol-4-yl)-8-fluoro-2-(3-(methylamino)azetidin-1-yl)quinazolin-4-yl)-2,5-dimethylpiperazin-1-yl)prop-2-en-1-one]",+++ (+++ indicates binding activity greater than 80%)
17,"[2H]C([2H])([2H])N(C1CN(c2nc(N3C[C@@H](C)N(C(=O)C=C)C[C@@H]3C)c3cc(Cl)c(-c4c(C)ccc5[nH]nc(C)c45)c(F)c3n2)C1)C([2H])([2H])[2H] (atropisomer, axis not shown) [Compound 221, 1-((2R,5S)-4-((R)-6-chloro-7-(3,5-dimethyl-1H-indazol-4-yl)-2-(3-(di-perdeuteromethylamino)azetidin-1-yl)-8-fluoroquinazolin-4-yl)-2,5-dimethylpiperazin-1-yl)prop-2-en-1-one]",+++ (+++ indicates binding activity greater than 80%)
18,"[2H]C([2H])([2H])N(C1CN(c2nc(N3C[C@@H](C)N(C(=O)C=C)C[C@@H]3C)c3cc(Cl)c(-c4c(C)ccc5[nH]nc(C)c45)c(F)c3n2)C1)C([2H])([2H])[2H] (atropisomer, axis not shown) [Compound 222, 1-((2R,5S)-4-((S)-6-chloro-7-(3,5-dimethyl-1H-indazol-4-yl)-2-(3-(di-perdeuteromethylamino)azetidin-1-yl)-8-fluoroquinazolin-4-yl)-2,5-dimethylpiperazin-1-yl)prop-2-en-1-one]",+ (+ indicates binding activity greater than 0% and up to 50%)

# From patent publication US11377441B2, “Covalent inhibitors of KRAS” (Araxes Pharma LLC, priority 2017, dated 2022)
